Laboratory results taken from patent US5284853A, “Angiotensin II receptor blocking 2,3,6 substituted quinazolinones” (American Cyanamid Company, priority 1993, dated 1994).
pIC50: −log10 of the molar value. Where “and” joins values, the source holds several entries; their conditions need not be identical. Identical values can stand only once.

Legend:
[1] = target: T1, Angiotensin II Receptor (Bos taurus, UniProt P25104); assay: Receptor binding assay: competition of [^125 I](Sar^1,Ile^8)AngII binding to beef adrenal cortex microsomal membranes; details: 60 min, room temperature, pH 7.4
T1 construct: The brownish tissue forming the adrenal cortex is scraped off and finely minced with scissors before homogenization; tissue local slaughter house (Maxwell-Cohen); host or cells: beef adrenal cortex, microsomal membranes (100,000×g pellet)
T1 sequence (P25104 1-359): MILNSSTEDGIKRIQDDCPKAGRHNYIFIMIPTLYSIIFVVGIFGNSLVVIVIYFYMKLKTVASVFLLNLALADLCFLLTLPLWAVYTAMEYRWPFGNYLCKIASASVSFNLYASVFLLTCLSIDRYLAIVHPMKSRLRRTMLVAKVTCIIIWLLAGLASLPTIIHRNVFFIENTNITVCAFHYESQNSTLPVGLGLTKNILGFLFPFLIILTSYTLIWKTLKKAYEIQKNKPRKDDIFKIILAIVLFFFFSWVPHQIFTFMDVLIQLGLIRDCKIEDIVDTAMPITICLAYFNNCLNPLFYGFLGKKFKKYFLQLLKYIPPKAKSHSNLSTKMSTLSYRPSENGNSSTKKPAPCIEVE
Excerpt: Beef adrenals are obtained from a local slaughter house (Maxwell-Cohen). [^125 […]. 2200 Ci/mmole, is purchased from Dupont (KEN@, Boston, Mass.). All unlabeled AngII analogs, Dimethylsulfoxide (DMSO), nucleotides, bovine serum albumin (BBA) are purchased from Sigma Chemical Co., St. Louis, MO U.S.A. Approximately sixteen (16) to twenty (20) beef adrenal glands are processed as follows: fresh adrenal glands received on crushed ice are cleaned of fatty tissues and the tough membranes encapsulating the glands are removed and discarded. The brownish tissue forming the adrenal cortex is scraped off and finely minced with scissors before homogenization care is taken to avoid contamination with medullary tissue during dissection. […] Unless otherwise indicated, all subsequent operations are done at […]. […] The homogenate is centrifuged first at low speed (3,000×g) for 10 min. […] This P2 pellet is discarded and the liquid phase is carefully decanted off in clean centrifuge tubes and recentrifuged at high speed (100,000×g) for 60 min. The translucent final pellet is harvested and combined in a small volume (20-50.0 ml) of […] Tris.HCl buffer, pH 7.2. A 100 ul aliquot is withdrawn and the protein content of the preparation is determined by the Lowry's method (Lowry, O. H., Rosebrough, N. P., Parr, A. L. and Randall, R. J., Protein measurement with Folin phenol reagent. J. Biol. Chem., […], 265-275, 1951). The pelleted membrane is reconstituted in 50.0 mM Tris.HCl buffer containing 0.1 mM of phenylmethylsulfonyl fluoride (PMSF) to give approximately a protein concentration of 2.5 mg per ml of tissue suspension. […] In competition studies, experimental compounds are diluted in dimethylsulfoxide (DMSO) and added in 20 ul to wells before the introduction of tissue membranes. This concentration of DMSO is found to have no negative effects on the binding of [^125 I] ([…] to the membranes. Assays are performed in triplicate. The wells are left undisturbed for 60 min. at room temperature. Following incubation, all wells are harvested at once with a Brandel® Harvester especially designed for a 96 well plate (Brandel® Biomedical Research & Development Labs. Inc., Gaithersburg, MD, U.S.A.). The filter discs are washed with 10×1.0 ml of cold 0.9% NaCl to remove unbound ligand. Presoaking the filter sheet in 0.1% polyethyleneimine in normal saline (PEI/Saline) greatly reduces the radioactivity retained by the filter blanks. This method is routinely used. The filters are removed from the filter grid and counted in a Parkard® Cobra Gamma Counter for 1 min. (Packard Instrument Co., Downers Grove, Ill, U.S.A.). The binding data are analyzed by the non-linear interactive "LUNDON-11" program (LUNDON SOFTWARE Inc., Cleveland, OH U.S.A.).

[2] = tested on: Angiotensin II (AII) vasopressor response; assay: AII Challenge: antagonism of the angiotensin II vasopressor response in conscious SHR; assay type: in vivo, Spontaneously hypertensive rats (Male okamoto-Aoki SHR); details: 10 mg/kg I.V.; for Average Change / Inhibition: n = 2; for Change / Control Before AII / Response After AII: per rat
Excerpt: […] Conscious Male okamoto-Aoki SHR, 16-20 weeks old, weighing approximately 330 g are purchased from Charles River Labs (Wilmington, MA). Conscious rats are restrained in a supine position with elastic tape. The area at the base of the tail is locally anesthetized by subcutaneous infiltration with 2% procaine. […] The cannula is secured, heparinized (1,000 I.U./ml), sealed and the wound is closed. The animals are placed in plastic restraining cages in an upright position. The cannula is attached to a Statham P23Db pressure transducer, and pulsatile blood pressure is recorded to 10-15 minutes with a Gould Brush recorder. (Chan et al., (Drug Development Res., 18:75-94, 1989). […] Co., St. […] […] […] […] […] A compound is considered active if at 30 mg/kg i.v. it antagonized at least 50% of the response.

[3] = AII 0.05 mcg/kg IV, 30 min post dose
[4] = AII 0.05 mcg/kg IV, 60 min post dose
[5] = AII 0.05 mcg/kg IV, 90 min post dose
[6] = AII 0.05 mcg/kg IV, 120 min post dose
[7] = AII 0.05 mcg/kg IV, 180 min post dose
[8] = AII 0.1 mcg/kg IV, 30 min post dose
[9] = AII 0.1 mcg/kg IV, 60 min post dose
[10] = AII 0.1 mcg/kg IV, 90 min post dose
[11] = AII 0.1 mcg/kg IV, 120 min post dose
[12] = AII 0.1 mcg/kg IV, 180 min post dose

CCCCc1nc2ccc(C3CC(C(=O)OCC)=NO3)cc2c(=O)n1Cc1ccc(-c2ccccc2-c2nnn[nH]2)cc1 (stereo not drawn) [Example 26, Ethyl 5-[2-butyl-3,4-dihydro-4-oxo-3-[[2'-(lH-tetrazol-5-yl)[1,1'-biphenyl]-4-yl]-methyl]-6-cruinazo-linyl]-4,5-dihydro-3-isoxazolecarboxylate]
pIC50 [1]: 7.52 | Average Change [2, 3]: 15 mmhg | Inhibition [2, 3]: 73% | Change [2, 3]: 15 mmhg | Control Before AII [2, 3]: 180 mmhg and 175 mmhg | Response After AII [2, 3]: 195 mmhg and 190 mmhg | Average Change [2, 4]: 10.5 mmhg | Inhibition [2, 4]: 81% | Change [2, 4]: 20 mmhg and 1 mmhg | Control Before AII [2, 4]: 175 mmhg and 195 mmhg | Response After AII [2, 4]: 195 mmhg and 196 mmhg | Average Change [2, 5]: 17 mmhg | Inhibition [2, 5]: 70% | Change [2, 5]: 15 mmhg and 19 mmhg | Control Before AII [2, 5]: 175 mmhg and 165 mmhg | Response After AII [2, 5]: 190 mmhg and 184 mmhg | Average Change [2, 6]: 20 mmhg | Inhibition [2, 6]: 64% | Change [2, 6]: 20 mmhg | Control Before AII [2, 6]: 165 mmhg | Response After AII [2, 6]: 185 mmhg | Average Change [2, 7]: 17.5 mmhg | Inhibition [2, 7]: 69% | Change [2, 7]: 15 mmhg and 20 mmhg | Control Before AII [2, 7]: 170 mmhg and 165 mmhg | Response After AII [2, 7]: 185 mmhg | Average Change [2, 8]: 11 mmhg | Inhibition [2, 8]: 79% | Change [2, 8]: 7 mmhg and 15 mmhg | Control Before AII [2, 8]: 185 mmhg and 170 mmhg | Response After AII [2, 8]: 192 mmhg and 185 mmhg | Average Change [2, 9]: 12.5 mmhg | Inhibition [2, 9]: 77% | Change [2, 9]: 15 mmhg and 10 mmhg | Control Before AII [2, 9]: 180 mmhg and 175 mmhg | Response After AII [2, 9]: 195 mmhg and 185 mmhg | Average Change [2, 10]: 15 mmhg | Inhibition [2, 10]: 72% | Change [2, 10]: 15 mmhg | Control Before AII [2, 10]: 185 mmhg and 175 mmhg | Response After AII [2, 10]: 200 mmhg and 190 mmhg | Average Change [2, 11]: 18.5 mmhg | Inhibition [2, 11]: 65% | Change [2, 11]: 17 mmhg and 20 mmhg | Control Before AII [2, 11]: 175 mmhg and 165 mmhg | Response After AII [2, 11]: 192 mmhg and 185 mmhg | Average Change [2, 12]: 38.5 mmhg | Inhibition [2, 12]: 28% | Change [2, 12]: 37 mmhg and 40 mmhg | Control Before AII [2, 12]: 170 mmhg and 165 mmhg | Response After AII [2, 12]: 207 mmhg and 205 mmhg
